Experimental data from ChEMBL document CHEMBL1157489, “Identification of novel non-peptide CXCR4 antagonists by ligand-based design approach” (Bioorg Med Chem Lett, 2008).

Legend:
[1] = target: T1, C-X-C chemokine receptor type 4 (Homo sapiens, UniProt P61073); assay: Displacement of [125I]SDF1 from human CXCR4 expressed in CHO cells at 10 uM; assay type: cell-based
[2] = target: T1, C-X-C chemokine receptor type 4; assay: Displacement of [125I]SDF1 from human CXCR4 expressed in CHO cells; assay type: cell-based
[3] = test system: Human immunodeficiency virus 1; assay: Antiviral activity against HIV1 3B assessed as inhibition of virus-induced cytopathogenicity; assay type: functional, organism-based; conditions: Human immunodeficiency virus 1, 3B

T1 sequence (P61073 whole entry): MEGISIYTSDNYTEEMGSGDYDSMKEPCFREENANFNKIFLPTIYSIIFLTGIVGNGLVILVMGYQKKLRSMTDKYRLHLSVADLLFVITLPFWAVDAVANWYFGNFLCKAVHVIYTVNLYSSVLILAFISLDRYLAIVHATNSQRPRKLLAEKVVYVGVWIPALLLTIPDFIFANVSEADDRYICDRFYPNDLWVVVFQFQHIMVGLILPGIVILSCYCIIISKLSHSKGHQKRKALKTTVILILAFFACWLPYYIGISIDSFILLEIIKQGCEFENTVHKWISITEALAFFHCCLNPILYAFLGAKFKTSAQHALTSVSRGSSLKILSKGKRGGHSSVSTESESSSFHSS

Activity [1] [%]	IC50 [2] [µM]	EC50 [3] [µM]	SMILES
	2.2		CC(C)C[C@@H](NC(=N)N)C(=O)Nc1ccc2c(c1)cc(C(=O)NCCc1c[nH]c3ccccc13)n2CCCNC(=N)N
88			N=C(N)NCCCn1c(C(=O)NCCc2c[nH]c3ccccc23)cc2cc(NC(=O)CNC(=N)N)ccc21
	3.7		N=C(N)NCCCn1c(C(=O)NCCc2c[nH]c3ccccc23)cc2cc(NC(=O)[C@@H](Cc3ccccc3)NC(=N)N)ccc21
	1.2	5.4	CC(C)C[C@H](NC(=N)N)C(=O)Nc1ccc2c(c1)cc(C(=O)NCCc1c[nH]c3ccccc13)n2CCCNC(=N)N
	3		NC(N)=NCCCn1c(C(=O)NCCc2c[nH]c3ccccc23)cc2cc(NC(=O)CN=C(N)N)ccc21
86	3		N=C(N)NCCCn1c(C(=O)NCCc2c[nH]c3ccccc23)cc2cc(NC(=O)C3CCN(C(=N)N)CC3)ccc21

The remaining lines, values behind:

SMILES	Activity [1] [%]	IC50 [2] [µM]	EC50 [3] [µM]
N=C(N)NCCCn1c(C(=O)Nc2cccc3ccccc23)cc2cc(NC(=O)Cc3ccc(O)cc3)ccc21	62		
N=C(N)NCCCn1c(C(=O)NCCc2ccc3ccccc3c2)cc2cc(NC(=O)CNC(=N)N)ccc21	63		
N=C(N)NCCCn1c(C(=O)NCCc2c[nH]c3ccccc23)cc2cc(NC(=O)[C@H](Cc3ccccc3)NC(=N)N)ccc21		1.7	
N=C(N)NCCCn1c(C(=O)Nc2cccc3ccccc23)cc2cc(NC(=O)CCc3ccc(O)cc3)ccc21	55		
N=C(N)NCCCn1c(C(=O)NCCc2cccc3ccccc23)cc2cc(NC(=O)CNC(=N)N)ccc21	61		
N=C(N)NCCc1cc2cc(NC(=O)CCc3ccc(O)cc3)ccc2n1CCc1ccc2ccccc2c1	53		
NC(N)=NCCc1cc2cc(NC(=O)CCc3ccc(O)cc3)ccc2n1CCc1ccc2ccccc2c1		2.7	
NC(N)=NCCCn1c(C(=O)Nc2cccc3ccccc23)cc2cc(NC(=O)Cc3ccc(O)cc3)ccc21		4.8	
N=C(N)NCCCn1c(C(=O)NCCc2c[nH]c3ccccc23)cc2cc(NC(=O)CCNC(=N)N)ccc21	70		
N=C(N)NCCCn1c(C(=O)NCCc2c[nH]c3ccccc23)cc2cc(NC(=O)C(Cc3ccccc3)NC(=N)N)ccc21 (racemic)	72		
N=C(N)NCCCn1c(C(=O)NCCc2ccc(O)cc2)cc2cc(NC(=O)CNC(=N)N)ccc21	23		
CC(C)CC(NC(=N)N)C(=O)Nc1ccc2c(c1)cc(C(=O)NCCc1c[nH]c3ccccc13)n2CCCNC(=N)N (racemic)	77		
